Results: patent publication US20030232102A1, “Total glycosides of paeony, method to prepare the same and uses thereof” (priority 2001, published 2003)

Test system: patients with rheumatoid arthritis
Test: Phase II clinical study in rheumatoid arthritis: effectiveness (symptoms, physical examination, comprehensive evaluation)
Format: in vivo, human
Design: ESR Reduced to norm., % of cases / CRP Reduced to Norm., % of cases / RF Reduced to norm., % of cases: concentration or dose not given beside the values
Details: for AGS 50% increased, % of cases / AGS 50% increased, cases / CRP 50% reduced, % of cases / CRP 50% reduced, cases / CRP Reduced to Norm., % of cases / CRP Reduced to Norm., cases / ESR 50% reduced, % of cases / ESR 50% reduced, cases / ESR Reduced to norm., % of cases / ESR Reduced to norm., cases / ITJ 50% reduced, % of cases / ITJ 50% reduced, cases / ITJ Disappeared, % of cases / ITJ Disappeared, cases / MR 50% reduced, % of cases / MR 50% reduced, cases / MR Disappeared, % of cases / MR Disappeared, cases / NSJ 50% reduced, % of cases / NSJ 50% reduced, cases / NSJ Disappeared, % of cases / NSJ Disappeared, cases / RF 2 dilutions lower, % of cases / RF 2 dilutions lower, cases / RF Reduced to norm., cases: double blinded
Protocol: It was a multiple-centered, randomized, parallel, positive controlled Phrase II clinical study.
All clinical studies except the above mentioned 120 cases were conducted in a single-blind condition.
1) Age 18˜65, male or female who agreed to the investigational treatment for 12 weeks to 6 months. History of rheumatoid arthritis was within 3 years.
2) Documented Rheumatoid Arthritis based on a diagnostic criteria of 1987 Revised ARA Criteria for the Classification of Rheumatoid Arthritis
3) Diagnosis of a typical active stage of RA: A patient is said to be on an active stage of RA if he or she has satisfied at least 4 of the following 5 items.
2) Patient who quitted the treatment for the ineffectiveness 7 days after the start of administration was included in the efficacy analysis. Patient who quitted the treatment for the side effects was not included in the efficacy analysis but the safety analyses.
1) The placebo run-in period: Seven days before administration, the selected patients stopped using NSAIDs and took a placebo instead.
4) For the double-blinded study, patients in both groups would be given capsules and tablets in same shapes, odors and amount. Placebo of capsule or tablet were included. Neither doctors nor patients can tell the group of treatment from the other.
5) No analgesics, anti-inflammation drugs, immune regulatory agents or muscle relaxants were allowed during the period of study. Acetaminophen could be used when necessary. If a physical therapy was started before enrollment, it was allowed to be continued, yet, it should be taken all the way during the period of clinical study.
1) Pain at rest: patients were asked to scale the degree of pain with a ruler [drawing 1]
2) Morning stiffness: Patients were requested to make notes on duration of their morning joint stiffness, a time span from its appearance to recovery in minutes every morning. The doctors should evaluate their record sheets by questioning them. For example “Do you fell stiff in any of your joints? (today, these 2 days)” When get a “yes” in answer, then “when did you get up today?” and “when does the stiffness be gone?”
3) Swelling of joints: Take count of the index of joint swelling by summing up the degree number of each joint.
0=normal; 1=swelling soft tissues (synovium) without hydrarthrus; 2=swelling soft tissues (synovium) with hydrarthrus.
4) Tenderness of joints: Take count of the index of joint tenderness by summing up the degree number of each joint:
5) Grip strength: Fold the arm belt of a sphygmomanometer twice and seal it in a small cloth bag suitable for a hand to hold. Aerates the belt in pressure of 20 mm Hg. Patients were asked to grip the bag with their not braced left and right hand, the grip strength is the average pressures in mm Hg for three times.
6) Time consumed for a 15 meters' walk (Seconds): Time started from a calm standing to the final of 15 meters. The average of three times.
7) General joint function (criteria of ARA):
8) Self-scoring and physician's grading on disease conditions: Both patients and doctors were required to submit their score sheet every time on follow-up survey. The scoring was made upon following criteria:
9) Patient's general condition: condition on the physical strength, sleep and appetite.
No effect: less than 30% improvement in symptoms and physical signs.
Improved: About 50% improvement in symptoms and physical signs (including general conditions in physical strength, sleep and appetite).

[1] = double blind, n = 60 per group, 12 weeks

CN(Cc1cnc2nc(N)nc(N)c2n1)c1ccc(C(=O)N[C@@H](CCC(=O)O)C(=O)O)cc1 [MTX, Methotrexate]
No effect, number of patients [1]: 15
Obviously improved, % of patients [1]: (48.33%)
Obviously improved, number of patients [1]: 29
AGS 50% increased, % of cases (4 weeks): 5.0%
AGS 50% increased, cases (4 weeks): 3
CRP 50% reduced, % of cases (4 weeks): 16.7%
CRP 50% reduced, cases (4 weeks): 10
CRP Reduced to Norm., % of cases (4 weeks): 6.7%
CRP Reduced to Norm., cases (4 weeks): 4
ESR 50% reduced, % of cases (4 weeks): 30.0%
ESR 50% reduced, cases (4 weeks): 18
ESR Reduced to norm., % of cases (4 weeks): 26.7%
ESR Reduced to norm., cases (4 weeks): 16
ITJ 50% reduced, % of cases (4 weeks): 31.7%
ITJ 50% reduced, cases (4 weeks): 19
ITJ Disappeared, % of cases (4 weeks): 3.3%
ITJ Disappeared, cases (4 weeks): 2
MR 50% reduced, % of cases (4 weeks): 38.3%
MR 50% reduced, cases (4 weeks): 23
MR Disappeared, % of cases (4 weeks): 25.0%
MR Disappeared, cases (4 weeks): 15
NSJ 50% reduced, % of cases (4 weeks): 40.0%
NSJ 50% reduced, cases (4 weeks): 24
NSJ Disappeared, % of cases (4 weeks): 15.0%
NSJ Disappeared, cases (4 weeks): 9
RF 2 dilutions lower, % of cases (4 weeks): 13.3%
RF 2 dilutions lower, cases (4 weeks): 8
RF Reduced to norm., cases (4 weeks): 0
AGS 50% increased, % of cases (8 weeks): 10.0%
AGS 50% increased, cases (8 weeks): 6
CRP 50% reduced, % of cases (8 weeks): 26.7%
CRP 50% reduced, cases (8 weeks): 16
CRP Reduced to Norm., % of cases (8 weeks): 25.0%
CRP Reduced to Norm., cases (8 weeks): 15
ESR 50% reduced, % of cases (8 weeks): 41.7%
ESR 50% reduced, cases (8 weeks): 25
ESR Reduced to norm., % of cases (8 weeks): 31.7%
ESR Reduced to norm., cases (8 weeks): 19
ITJ 50% reduced, % of cases (8 weeks): 43.3%
ITJ 50% reduced, cases (8 weeks): 26
ITJ Disappeared, % of cases (8 weeks): 3.3%
ITJ Disappeared, cases (8 weeks): 2
MR 50% reduced, % of cases (8 weeks): 53.3%
MR 50% reduced, cases (8 weeks): 32
MR Disappeared, % of cases (8 weeks): 21.7%
MR Disappeared, cases (8 weeks): 13
NSJ 50% reduced, % of cases (8 weeks): 55.0%
NSJ 50% reduced, cases (8 weeks): 33
NSJ Disappeared, % of cases (8 weeks): 20.0%
NSJ Disappeared, cases (8 weeks): 12
RF 2 dilutions lower, % of cases (8 weeks): 36.7%
RF 2 dilutions lower, cases (8 weeks): 22
RF Reduced to norm., cases (8 weeks): 0
AGS 50% increased, % of cases (12 weeks): 15.0%
AGS 50% increased, cases (12 weeks): 9
CRP 50% reduced, % of cases (12 weeks): 33.3%
CRP 50% reduced, cases (12 weeks): 20
CRP Reduced to Norm., % of cases (12 weeks): 8.3%
CRP Reduced to Norm., cases (12 weeks): 5
ESR 50% reduced, % of cases (12 weeks): 51.7%
ESR 50% reduced, cases (12 weeks): 31
ESR Reduced to norm., % of cases (12 weeks): 33.3%
ESR Reduced to norm., cases (12 weeks): 20
ITJ 50% reduced, % of cases (12 weeks): 51.7%
ITJ 50% reduced, cases (12 weeks): 31
ITJ Disappeared, % of cases (12 weeks): 15.0%
ITJ Disappeared, cases (12 weeks): 9
MR 50% reduced, % of cases (12 weeks): 60.0%
MR 50% reduced, cases (12 weeks): 36
MR Disappeared, % of cases (12 weeks): 25.0%
